Source: PubChem BioAssay (NCI)
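Where inhibition never reached the appropriate level, the endpoint shown equals the highest concentration tested. Otherwise, values were interpolated linearly from a five-concentration, 48-hour dose response in 96-well plates. GI50 marks 50% less growth. TGI marks complete inhibition of growth.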

Columns and labels:
Test in all cases: DTP human tumour cell line panel, 48 h
RXF 393 renal = test system: RXF 393 renal
A498 renal = test system: A498 renal
TK-10 renal = test system: TK-10 renal
OVCAR-3 ovarian = test system: OVCAR-3 ovarian
NCI/ADR-RES ovarian = test system: NCI/ADR-RES ovarian
UACC-62 melanoma = test system: UACC-62 melanoma
M14 melanoma = test system: M14 melanoma
IGROV1 ovarian = test system: IGROV1 ovarian
EKVX NSCLC = test system: EKVX NSCLC
COLO 205 colon = test system: COLO 205 colon
SW-620 colon = test system: SW-620 colon
HOP-92 NSCLC = test system: HOP-92 NSCLC
MALME-3M melanoma = test system: MALME-3M melanoma

SMILES	TGI (RXF 393 renal) [µM]	TGI (A498 renal) [µM]	TGI (TK-10 renal) [µM]	TGI (OVCAR-3 ovarian) [µM]	TGI (NCI/ADR-RES ovarian) [µM]	TGI (UACC-62 melanoma) [µM]	TGI (M14 melanoma) [µM]	TGI (IGROV1 ovarian) [µM]	TGI (EKVX NSCLC) [µM]	TGI (COLO 205 colon) [µM]	TGI (SW-620 colon) [µM]	TGI (HOP-92 NSCLC) [µM]	GI50 (TK-10 renal) [µM]	GI50 (NCI/ADR-RES ovarian) [µM]	GI50 (SW-620 colon) [µM]	TGI (MALME-3M melanoma) [µM]	GI50 (MALME-3M melanoma) [µM]	GI50 (UACC-62 melanoma) [µM]	GI50 (COLO 205 colon) [µM]	GI50 (HOP-92 NSCLC) [µM]
COc1ccc2c(O)c3[n+](cc2c1OC)CCc1cc2c(cc1-3)OCO2	85.7	> 100	> 100	> 100	> 100	> 100	> 100	> 100	> 100	> 100	> 100	> 100	–	–	–	–	–	–	–	–
ClCCN(CCCl)Cc1ccc(Nc2ccnc3cc(Cl)ccc23)cc1	–	–	6.22	–	7.36	–	–	–	–	–	14.6	–	2.42	2.17	1.35	–	–	–	–	–
COc1ccc(C(=O)C2CC3(CCC2(O)c2ccc(OC)cc2)CC(=O)Nc2ccccc2C3=O)cc1 (stereo not given)	> 100	> 100	> 100	> 100	> 100	> 100	> 100	> 100	> 100	> 100	> 100	> 100	–	–	–	> 100	–	–	–	–
COC[C@H]1C(=O)NCC(=O)N2NCCC[C@H]2C(=O)N(O)[C@H](C)C(=O)O[C@@H](C(C)C)[C@H](NC(=O)[C@](C)(O)[C@]2(O)CC[C@@H](CC(C)C)[C@H](C)O2)C(=O)N2NCCC[C@@H]2C(=O)N1O	–	–	0.0322	–	–	0.0312	–	–	–	0.0284	–	0.0377	0.0181	–	–	0.0291	0.0142	0.0154	0.0139	0.0161
CO/C(=N\N=C(/C)C(F)(F)F)c1ccncc1	> 100	> 100	–	> 100	> 100	> 100	> 100	> 100	–	> 100	–	> 100	–	–	–	> 100	–	–	–	–
CCOc1ncn(-c2ccc(NC(=S)Nc3cccc(O)c3)cc2)n1	–	–	> 100	> 100	–	> 100	> 100	> 100	> 100	> 100	> 100	> 100	–	–	–	–	–	–	–	–
